Data on 4 compounds can be found in patent US9452155B2, “Injectable antibiotic formulations and their methods of use” (BAYER NEW ZEALAND LTD, priority 2012, dated 2016).

The conditions of data set [1]: 20° C.; cited from earlier work.
Data set [2] is classed as physicochemical. The text has this: Thus the long term stability of PNT with triacetin (or other oily vehicles) is highly unexpected. […] After one month in accelerated stability the components of the composition appeared to degrade rapidly with a resulting colour change from an off-white to a dark yellow with dark brown sludge forming. The degradation components appeared to include a gas, resulting in the container swelling from the resultant pressure. Accordingly, the formulations described in CN 1517090 are not known to be storage stable.

For data set [3] the following is noted: cited from earlier work.

Consider `CC(=O)OCC(COC(C)=O)OC(C)=O` [Triacetin], for which the viscosity result in data set [1] was “approximately 23 mPas”.

For `CC1(C)S[C@@H]2[C@H](NC(=O)Cc3ccccc3)C(=O)N2[C@H]1C(=O)O` [benzylpenicillin], the “chemical stability on storage in oily vehicles” value in data set [2] was “chemically unstable”. `CCN(CC)CCOC(=O)[C@@H]1N2C(=O)[C@@H](NC(=O)Cc3ccccc3)[C@H]2SC1(C)C.I` [penethamate hydroiodide]: the “time to peak serum levels (measured as dissociated penicillin G)” value in data set [3] (after injection (Friton 2003)) was 3.76 h. Further, in data set [3] (blood pH (7.2), after intramuscular administration), the “share of the active drug present in its hydrolysed form (benzylpenicillin) at equilibrium” value is 91.8%. Regarding `CC1(C)S[C@@H]2[C@H](NC(=O)Cc3ccccc3)C(=O)N2[C@H]1C(=O)O.CCN(CC)CCOC(=O)c1ccc(N)cc1` [procaine penicillin], in data set [2], the “chemical stability on storage in oily vehicles” value is listed as “chemically unstable” and the “chemical stability when substituted for penethamate in the preferred formulation” value is given as “chemically unstable”.
